From the NIST ThermoML archive (doi:10.1016/j.jct.2008.02.020)

Conditions: Liquid, Buoyancy - hydrostatic balance with magnetic suspension - one sinker

CCCCCCC [heptane]
Conditions | mass density [kg/m3]
233.15 K, 101.68 kPa | 733.289
233.15 K, 1104.1 kPa | 733.918
233.15 K, 2003.3 kPa | 734.481
233.15 K, 4006 kPa | 735.714
233.15 K, 6004.8 kPa | 736.928
233.15 K, 8009.5 kPa | 738.125
233.15 K, 9956.8 kPa | 739.277
233.15 K, 11864 kPa | 740.377
233.15 K, 13984 kPa | 741.588
233.15 K, 15995 kPa | 742.722
233.15 K, 17888 kPa | 743.774
233.15 K, 20074 kPa | 744.977
233.15 K, 22024 kPa | 746.029
233.15 K, 24018 kPa | 747.094
233.15 K, 25954 kPa | 748.113
233.15 K, 27944 kPa | 749.147
233.15 K, 29979 kPa | 750.192
253.15 K, 98.99 kPa | 717.086
253.15 K, 1101.5 kPa | 717.807
253.15 K, 2000.5 kPa | 718.446
253.15 K, 4006.3 kPa | 719.85
253.15 K, 6005.4 kPa | 721.223
253.15 K, 8147.8 kPa | 722.669
253.15 K, 10096 kPa | 723.959
253.15 K, 11827 kPa | 725.088
253.15 K, 13955 kPa | 726.459
253.15 K, 16060 kPa | 727.785
253.15 K, 18040 kPa | 729.014
253.15 K, 20020 kPa | 730.22
253.15 K, 22093 kPa | 731.465
253.15 K, 23828 kPa | 732.495
253.15 K, 25891 kPa | 733.701
253.15 K, 27739 kPa | 734.762
253.15 K, 29900 kPa | 735.987
273.15 K, 102.15 kPa | 700.687
273.15 K, 1101.3 kPa | 701.507
273.15 K, 2006.3 kPa | 702.244
273.15 K, 4005.4 kPa | 703.841
273.15 K, 6005.5 kPa | 705.403
273.15 K, 8197.5 kPa | 707.077
273.15 K, 10109 kPa | 708.507
273.15 K, 12114 kPa | 709.976
273.15 K, 14092 kPa | 711.403
273.15 K, 16116 kPa | 712.831
273.15 K, 18076 kPa | 714.19
273.15 K, 20096 kPa | 715.565
273.15 K, 22069 kPa | 716.883
273.15 K, 24102 kPa | 718.226
273.15 K, 25918 kPa | 719.397
273.15 K, 27991 kPa | 720.718
273.15 K, 29444 kPa | 721.633
293.15 K, 98.89 kPa | 683.986
293.15 K, 1104.3 kPa | 684.937
293.15 K, 2003.3 kPa | 685.779
293.15 K, 4003 kPa | 687.611
293.15 K, 6003.7 kPa | 689.394
293.15 K, 8007.4 kPa | 691.14
293.15 K, 10028 kPa | 692.854
293.15 K, 12139 kPa | 694.603
293.15 K, 14008 kPa | 696.118
293.15 K, 16160 kPa | 697.827
293.15 K, 18149 kPa | 699.368
293.15 K, 19992 kPa | 700.756
293.15 K, 22123 kPa | 702.362
293.15 K, 24036 kPa | 703.766
293.15 K, 25999 kPa | 705.175
293.15 K, 27983 kPa | 706.576
293.15 K, 29986 kPa | 707.965
313.15 K, 101.45 kPa | 666.898
313.15 K, 1102.2 kPa | 667.995
313.15 K, 2005.5 kPa | 668.973
313.15 K, 4004.5 kPa | 671.086
313.15 K, 6106.9 kPa | 673.238
313.15 K, 7941.2 kPa | 675.062
313.15 K, 9944.4 kPa | 676.997
313.15 K, 11841 kPa | 678.793
313.15 K, 13782 kPa | 680.575
313.15 K, 16032 kPa | 682.588
313.15 K, 17876 kPa | 684.2
313.15 K, 19748 kPa | 685.804
313.15 K, 21803 kPa | 687.518
313.15 K, 23829 kPa | 689.172
313.15 K, 25814 kPa | 690.765
313.15 K, 27801 kPa | 692.324
313.15 K, 29818 kPa | 693.872
333.15 K, 103 kPa | 649.298
333.15 K, 1106 kPa | 650.588
333.15 K, 2004.1 kPa | 651.723
333.15 K, 4003.6 kPa | 654.18
333.15 K, 6004.6 kPa | 656.549
333.15 K, 8005.6 kPa | 658.837
333.15 K, 9901.5 kPa | 660.933
333.15 K, 12083 kPa | 663.274
333.15 K, 14040 kPa | 665.309
333.15 K, 16005 kPa | 667.293
333.15 K, 17854 kPa | 669.109
333.15 K, 19985 kPa | 671.149
333.15 K, 21967 kPa | 672.997
333.15 K, 23926 kPa | 674.778
333.15 K, 25823 kPa | 676.467
333.15 K, 27823 kPa | 678.205
333.15 K, 30009 kPa | 680.058
353.15 K, 99.37 kPa | 631.037
353.15 K, 1182.8 kPa | 632.68
353.15 K, 2156.3 kPa | 634.131
353.15 K, 4140.7 kPa | 636.982
353.15 K, 6175.6 kPa | 639.78
353.15 K, 8138.9 kPa | 642.37
353.15 K, 10095 kPa | 644.851
353.15 K, 12083 kPa | 647.284
353.15 K, 14040 kPa | 649.596
353.15 K, 16039 kPa | 651.883
353.15 K, 18008 kPa | 654.064
353.15 K, 19996 kPa | 656.201
353.15 K, 21956 kPa | 658.247
353.15 K, 23925 kPa | 660.247
353.15 K, 25887 kPa | 662.188
353.15 K, 27855 kPa | 664.084
353.15 K, 29976 kPa | 666.077
373.15 K, 1164.3 kPa | 613.877
373.15 K, 2149.2 kPa | 615.631
373.15 K, 4123.5 kPa | 618.999
373.15 K, 5987 kPa | 622.014
373.15 K, 8094.8 kPa | 625.262
373.15 K, 10060 kPa | 628.151
373.15 K, 12066 kPa | 630.972
373.15 K, 14018 kPa | 633.61
373.15 K, 16044 kPa | 636.241
373.15 K, 18058 kPa | 638.765
373.15 K, 19976 kPa | 641.085
373.15 K, 21960 kPa | 643.408
373.15 K, 23948 kPa | 645.665
373.15 K, 25805 kPa | 647.712
373.15 K, 27898 kPa | 649.952
373.15 K, 29819 kPa | 651.952
393.15 K, 1101.9 kPa | 593.952
393.15 K, 2001.5 kPa | 595.905
393.15 K, 4002.8 kPa | 600.027
393.15 K, 6004.3 kPa | 603.884
393.15 K, 8005.5 kPa | 607.511
393.15 K, 10007 kPa | 610.942
393.15 K, 12111 kPa | 614.361
393.15 K, 14116 kPa | 617.466
393.15 K, 16097 kPa | 620.399
393.15 K, 18029 kPa | 623.142
393.15 K, 20054 kPa | 625.904
393.15 K, 22016 kPa | 628.483
393.15 K, 24006 kPa | 631.008
393.15 K, 25986 kPa | 633.434
393.15 K, 27952 kPa | 635.769
393.15 K, 29843 kPa | 638.037
